For 23 compounds, EC50 results are on record in patent publication US8642788B2, “Activators of executioner procaspases 3, 6 and 7” (The Regents of the University of California, priority 2008, dated 2014).

Common to all, as to assay type: biochemical
For one experiment, the target named is T1, procaspase-6 (Homo sapiens, UniProt P55212).
T1 sequence (P55212 1-293): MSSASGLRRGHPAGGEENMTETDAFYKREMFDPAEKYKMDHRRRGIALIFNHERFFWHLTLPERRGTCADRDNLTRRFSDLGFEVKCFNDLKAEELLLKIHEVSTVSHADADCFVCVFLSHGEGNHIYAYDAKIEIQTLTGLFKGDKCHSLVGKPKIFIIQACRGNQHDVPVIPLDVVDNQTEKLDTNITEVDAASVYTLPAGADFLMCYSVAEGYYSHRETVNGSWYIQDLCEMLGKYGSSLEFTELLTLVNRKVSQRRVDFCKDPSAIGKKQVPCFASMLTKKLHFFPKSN
Nature of the experiment: Executioner procaspase-6 activation assay (Ac-VEID-AFC fluorogenic substrate). As to conditions: incubation with compound for 5 h at 37° C.; 100 nM procaspase. A digest of the protocol: (§1)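 Procaspase at 100 nM incubated with compound (100 nM–100 μM) in 50 mM HEPES pH 7.4, KCl, DTT, 0.01% Triton X-100, 3% DMSO, 37 °C for 5 h; then 25 μM Ac-DEVD-AFC (procaspase-7) or Ac-VEID-AFC (procaspase-6), kinetic fluorescence 30 min (ex 365/em 495); EC50 reported.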

The target in the next experiment is T2, procaspase-3 (Homo sapiens, UniProt P42574).
T2 construct: His6 (C); made in house; host or cells: E. coli BL21(DE3)RP, pET-23b
T2 sequence (P42574 1-277): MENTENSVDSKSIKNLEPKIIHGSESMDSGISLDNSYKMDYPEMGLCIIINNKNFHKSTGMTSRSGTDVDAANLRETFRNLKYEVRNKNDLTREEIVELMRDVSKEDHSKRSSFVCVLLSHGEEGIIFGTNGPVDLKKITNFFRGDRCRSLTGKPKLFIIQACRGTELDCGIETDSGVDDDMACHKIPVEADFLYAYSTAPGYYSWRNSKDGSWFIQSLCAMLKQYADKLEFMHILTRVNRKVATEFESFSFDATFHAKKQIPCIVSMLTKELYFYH
Description: Executioner procaspase-3 activation assay (Ac-DEVD-AFC fluorogenic substrate). As to conditions: incubation with compound for 5 h at 37° C.; 100 nM procaspase; read-out: Procaspase Activation 3. A digest of the protocol: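 Procaspase-3 at 100 nM was incubated with activating compounds (100 nM to 100 uM) in 50 mM HEPES pH 7.4, 50 mM KCl, 1 mM DTT and 0.01% Triton-X100, the detergent limiting aggregation artefacts. Protein, substrate and inhibitor were kept as frozen aliquots and thawed just before use.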

The next experiment concerns the target T3, procaspase-7 (Homo sapiens, UniProt P55210).
T3 construct: His6 (C); made in house; host or cells: E. coli BL21(DE3)RP, pET-21b
T3 sequence (P55210 1-303): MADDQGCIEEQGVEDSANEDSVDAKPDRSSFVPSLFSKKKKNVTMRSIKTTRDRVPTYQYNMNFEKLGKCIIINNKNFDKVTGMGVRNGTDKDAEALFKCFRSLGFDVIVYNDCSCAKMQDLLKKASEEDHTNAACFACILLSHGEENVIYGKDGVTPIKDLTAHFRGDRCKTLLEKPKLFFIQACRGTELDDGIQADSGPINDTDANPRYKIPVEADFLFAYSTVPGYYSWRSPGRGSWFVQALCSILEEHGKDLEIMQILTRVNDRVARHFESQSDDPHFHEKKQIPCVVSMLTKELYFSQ
Description: Executioner procaspase-7 activation assay (Ac-DEVD-AFC fluorogenic substrate). The settings on record: incubation with compound for 5 h at 37° C.; 100 nM procaspase. A digest of the protocol:
as §1

Regarding `CC(=O)Nc1ccccc1-c1cccc(NC(=O)c2cc3cccc(OC(F)(F)F)c3oc2=O)c1` [compound 97, 8-Trifluoromethoxy-2-oxo-2H-chromene-3-carboxylic acid (2′-acetylamino-biphenyl-3-yl)-amide], the EC50 on procaspase-6, at procaspase-3 and on procaspase-7 was over 100 µM in each case.
Turning to `O=C(Nc1cccc(-c2ccccc2S(=O)(=O)N2CCOCC2)c1)c1cc2cccc(O)c2oc1=O` [compound 98, 8-Hydroxy-2-oxo-2H-chromene-3-carboxylic acid (2′-(Morpholine-4-sulfonyl)-biphenyl-3-yl)-amide], the EC50 at procaspase-6 is over 100 µM; on procaspase-3, 10 to 50 µM; at procaspase-7, 10 to 50 µM.
In the case of `COc1cccc2cc(C(=O)Nc3cccc(-c4ccccc4S(=O)(=O)N4CCOCC4)c3)c(=O)oc12` [compound 99, 8-Methoxy-2-oxo-2H-chromene-3-carboxylic acid (2′-(Morpholine-4-sulfonyl)-biphenyl-3-yl)-amide], the EC50 at procaspase-6, on procaspase-3 and on procaspase-7 was over 100 µM throughout.
As to `O=C(Nc1cccc(-c2ccccc2S(=O)(=O)N2CCOCC2)c1)c1cc2cccc(OC(F)(F)F)c2oc1=O` [compound 100, 8-Trifluoromethoxy-2-oxo-2H-chromene-3-carboxylic acid (2′-(Morpholine-4-sulfonyl)-biphenyl-3-yl)-amide], the EC50 at procaspase-6, on procaspase-3 and on procaspase-7 was over 100 µM throughout.
Take `COc1ncc(-c2cccc(NC(=O)c3cc4cccc(O)c4oc3=O)c2)c(OC)n1` [compound 127, 8-Hydroxy-2-oxo-2H-chromene-3-carboxylic acid [3-(2,4-dimethoxy-pyrimidin-5-yl)-phenyl]-amide]: the EC50 on procaspase-6, at procaspase-3 and on procaspase-7 was over 100 µM each time.
On to `COc1ncc(-c2cccc(NC(=O)c3cc4cccc(OC)c4oc3=O)c2)c(OC)n1` [compound 128, 8-Methoxy-2-oxo-2H-chromene-3-carboxylic acid [3-(2,4-dimethoxy-pyrimidin-5-yl)-phenyl]-amide], for which the EC50 at procaspase-6, on procaspase-3 and on procaspase-7 was over 100 µM each time.
Consider `COc1ccc(-c2cccc(NC(=O)c3cc4cccc(O)c4oc3=O)c2)cn1` [compound 129, 8-Hydroxy-2-oxo-2H-chromene-3-carboxylic acid [3-(6-methoxy-pyridin-3-yl)-phenyl]-amide], for which the EC50 on procaspase-6, at procaspase-3 and on procaspase-7 was over 100 µM in each case.
Consider `COc1ccc(-c2cccc(NC(=O)c3cc4cccc(OC)c4oc3=O)c2)cn1` [compound 130, 8-Methoxy-2-oxo-2H-chromene-3-carboxylic acid [3-(6-methoxy-pyridin-3-yl)-phenyl]-amide], for which the EC50 on procaspase-6, at procaspase-3 and on procaspase-7 was over 100 µM in each case.
With `COc1cncc(-c2cccc(NC(=O)c3cc4cccc(O)c4oc3=O)c2)c1` [compound 131, 8-Hydroxy-2-oxo-2H-chromene-3-carboxylic acid [3-(5-methoxy-pyridin-3-yl)-phenyl]-amide], the EC50 on procaspase-6, on procaspase-3 and on procaspase-7 was over 100 µM each time.
For `COc1cncc(-c2cccc(NC(=O)c3cc4cccc(OC)c4oc3=O)c2)c1` [compound 132, 8-Methoxy-2-oxo-2H-chromene-3-carboxylic acid [3-(5-methoxy-pyridin-3-yl)-phenyl]-amide], the EC50 on procaspase-6, at procaspase-3 and at procaspase-7 was over 100 µM throughout.
Regarding `COc1ncc(-c2cccc(NC(=O)c3cc4cccc(O)c4oc3=O)c2)cn1` [compound 133, 8-Hydroxy-2-oxo-2H-chromene-3-carboxylic acid [3-(2-methoxy-pyrimidin-5-yl)-phenyl]-amide], the EC50 on procaspase-6, on procaspase-3 and at procaspase-7 was over 100 µM throughout.
Turning to `COc1ncc(-c2cccc(NC(=O)c3cc4cccc(OC)c4oc3=O)c2)cn1` [compound 134, 8-Methoxy-2-oxo-2H-chromene-3-carboxylic acid [3-(2-methoxy-pyrimidin-5-yl)-phenyl]-amide], the EC50 at procaspase-6, at procaspase-3 and at procaspase-7 was over 100 µM in each case.
Consider `O=C(Nc1cccc(-c2cncnc2)c1)c1cc2cccc(O)c2oc1=O` [compound 135, 8-Hydroxy-2-oxo-2H-chromene-3-carboxylic acid (3-pyrimidin-5-yl-phenyl)-amide], for which the EC50 on procaspase-6, at procaspase-3 and at procaspase-7 was over 100 µM throughout.
For the compound `COc1cccc2cc(C(=O)Nc3cccc(-c4cncnc4)c3)c(=O)oc12` [compound 136, 8-Methoxy-2-oxo-2H-chromene-3-carboxylic acid (3-pyrimidin-5-yl-phenyl)-amide], the EC50 on procaspase-6 is 50 to 200 µM; on procaspase-3 it was 50 to 200 µM; on procaspase-7, over 100 µM.
For `CN(C)c1ccc(-c2cccc(NC(=O)c3cc4cccc(O)c4oc3=O)c2)cn1` [compound 137, 8-Hydroxy-2-oxo-2H-chromene-3-carboxylic acid [3-(6-dimethylamino-pyridin-3-yl)-phenyl]-amide], the EC50 on procaspase-6, at procaspase-3 and on procaspase-7 was over 100 µM in each case.
`COc1cccc2cc(C(=O)Nc3cccc(-c4ccc(N(C)C)nc4)c3)c(=O)oc12` [compound 138, 8-Methoxy-2-oxo-2H-chromene-3-carboxylic acid [3-(6-dimethylamino-pyridin-3-yl)-phenyl]-amide]: the EC50 at procaspase-6, on procaspase-3 and at procaspase-7 was over 100 µM each time.
With `O=C(Nc1cccc(-c2ccc(O)nc2)c1)c1cc2cccc(O)c2oc1=O` [compound 139, 8-Hydroxy-2-oxo-2H-chromene-3-carboxylic acid [3-(6-hydroxy-pyridin-3-yl)-phenyl]-amide], the EC50 on procaspase-6, at procaspase-3 and at procaspase-7 was over 100 µM throughout.
Consider `COc1cccc2cc(C(=O)Nc3cccc(-c4ccc(O)nc4)c3)c(=O)oc12` [compound 140, 8-Methoxy-2-oxo-2H-chromene-3-carboxylic acid [3-(6-hydroxy-pyridin-3-yl)-phenyl]-amide], for which the EC50 at procaspase-6, on procaspase-3 and at procaspase-7 was over 100 µM in each case.
`COc1ncccc1-c1cccc(NC(=O)c2cc3cccc(O)c3oc2=O)c1` [compound 141, 8-Hydroxy-2-oxo-2H-chromene-3-carboxylic acid [3-(2-methoxy-pyridin-3-yl)-phenyl]-amide]: the EC50 on procaspase-6 is over 100 µM; at procaspase-3, over 100 µM; on procaspase-7, 10 to 50 µM.
Take `COc1ncccc1-c1cccc(NC(=O)c2cc3cccc(OC)c3oc2=O)c1` [compound 142, 8-Methoxy-2-oxo-2H-chromene-3-carboxylic acid [3-(2-methoxy-pyridin-3-yl)-phenyl]-amide]: the EC50 on procaspase-6, on procaspase-3 and on procaspase-7 was over 100 µM each time.
Regarding `N#Cc1ccc(-c2cccc(NC(=O)c3cc4cccc(O)c4oc3=O)c2)cc1F` [compound 143, 8-Hydroxy-2-oxo-2H-chromene-3-carboxylic acid (4′-cyano-3′-fluoro-biphenyl-3-yl)-amide], the EC50 at procaspase-6, at procaspase-3 and on procaspase-7 was over 100 µM each time.
With `COc1cccc2cc(C(=O)Nc3cccc(-c4ccc(C#N)c(F)c4)c3)c(=O)oc12` [compound 144, 8-Methoxy-2-oxo-2H-chromene-3-carboxylic acid (4′-cyano-3′-fluoro-biphenyl-3-yl)-amide], the EC50 at procaspase-6, on procaspase-3 and at procaspase-7 was over 100 µM throughout.
As to `N#Cc1cc(-c2cccc(NC(=O)c3cc4cccc(O)c4oc3=O)c2)ccc1F` [compound 145, 8-Hydroxy-2-oxo-2H-chromene-3-carboxylic acid (3′-cyano-4′-fluoro-biphenyl-3-yl)-amide], the EC50 at procaspase-6, on procaspase-3 and on procaspase-7 was over 100 µM throughout.
